In one assay the test system is growth hormone release. As to the kind of experiment: growth hormone release, serum concentration, procedure of Lien et al. Febs. Letters 88 208-210 (1978). Type of assay: in vivo. Conditions: 2 milligrams per kilogram; control 55±8 ng/ml; p<0.05. On the procedure: Illustrative of the growth hormone releasing ability of the compounds of this invention is the activity of des-(66-88)-β-endorphin, representative of the other compounds, which at 2 milligrams per kilogram caused growth hormone release to result in a serum concentration of 380±124 ng/ml. as related to the control concentration of 55±8 ng/ml. at a confidence level of p<0.05, following the procedure of Lien et al. Febs. Letters 88 208-210 (1978).

Assay [1] deals with analgesia. The experiment in a line: analgesia on intracerebroventricular administration. Type of assay: in vivo.
The subject of assay [2] is analgesia. Conditions: Tseng et al.; cited from earlier work.
The subject of assay [3] is analgesia. Conditions: Loh et al.; cited from earlier work.
For assay [4], the system named is growth hormone and prolactin release. Conditions: rat; Dupont et al., Rivier et al.; cited from earlier work.

As to “L-Tyrosyl-glycyl-glycyl-L-phenylalanyl-L-methionyl-L-lysyl-glycyl-L-glutamine diacetate [des-(66-88)-β-endorphin]”, in the assay with growth hormone release, the “growth hormone serum concentration” value came to 380 ± 124 ng/mL. In addition, the intracerebroventricular analgesic activity entry with analgesia [1] is listed as “intracerebroventricular analgesic agents”.

As to “H-Tyr-Gly-Gly-Phe-Met-Thr-Ser-Glu-Lys-Ser-Gln-Thr-Pro-Leu-Val-Thr-Leu-Phe-Lys-Asn-Ala-Ile-Ile-Lys-Asn-Ala-His-Lys-Lys-Gly-Gln-OH (H-YGGFMTSEKSQTPLVTLFKNAIIKNAHKKGQ-OH) [β-Endorphin, naturally occurring peptide isolated by Bradbury et al. and Li et al]”, in the assay with analgesia [2], the “analgesic activity by intravenous injection” value is “potent analgesic activity”. The “analgesic activity by intracerebral administration” value with analgesia [3] was “potent analgesic activity”. Besides, in assay [4], the “growth hormone release stimulation” value is “growth hormone and prolactin release stimulation”; the prolactin release stimulation entry is “growth hormone and prolactin release stimulation”.
